US20020058591A1, “Herbicidal compositions” (priority 2000, published 2002)

How the values were obtained:
Format in all cases: in vivo
[1] = system: Echinochloa crus-galli (ECHCG); assay: Example B.2 post-emergence spray, greenhouse, visual scoring; conditions: 28 days after application
Procedure: (§1) The individual components herbicide, surfactant and humectant with regard to type and application rate as stated in Tables 1-4 were added with stirring to a water application rate of 300 l/ha so that a homogeneous spray mixture was formed. The active substances rimsulfuron and nicosulfuron in the commercially available formulations Cato® WG25 (Du Pont) and Motivell® (BASF) were used for this purpose, respectively. Iodosulfuron-methyl-sodium and mesosulfuron-methyl were added in each case as 20 percent water-dispersible powders. Foramsulfuron was used as 50 percent water-dispersible granules. The surfactants used were Genapol® LRO as 70 percent paste (Clariant) and Synperonic® A7 (Unichema).
(§2) Visual scoring was carried out using a percentage scale of 0%=no damage to 100%=all plants dead.
(§3) Seeds of the harmful plants LOLMU, ALOMY, AVEFA, ECHCG and DIGSA were sown in a sandy loam soil in round pots type 7 in a greenhouse and watered slightly. A daytime temperature of 22 to 24° C. and a nighttime temperature of 16 to 18° C. was adhered to, a uniform day length of 16 hours being achieved by additional illumination with sodium vapor lamps (approx. 7000 lux). The relative atmospheric humidity was 60 to 80%. Two weeks after sowing, the plants were treated on a laboratory spray conveyor with the spray mixtures of rimsulfuron (A2), nicosulfuron (A3), iodosulfuron-methyl sodium (A4) and foramsulfuron (A5) and of combinations of A2, A3, A4 and A5 with Genapol® LRO and sodium lactate, the spray mixtures being prepared as in Example A. The water application rate for the spray application of the preparations was 300 l/ha. After the treatment, the plants were returned to the greenhouse.

[2] = system: Alopecurus myosuroides (ALOMY); assay: as above; conditions: 28 days after application
Procedure: as §1, §2, §3

[3] = system: Digitaria adscendens (DIGSA); assay: as above; conditions: 28 days after application
Procedure: as §1, §2, §3

Avena fatua (AVEFA) [4] = assay: as above; conditions: 28 days after application
Procedure: as §1, §2, §3

[5] = system: Lolium multiflorum (LOLMU); assay: as above; conditions: 28 days after application
Procedure: as §1, §2, §3

Bromus tectorum (BROTE) = assay: Example B.3 post-emergence spray, pots in the open, minimal irrigation, visual scoring; conditions: A1 10 g a.i./ha (surfactant 300, humectant 300 g a.i./ha where combined), 28 days after application
Procedure: as §1, §2
Seeds of the harmful plant BROTE were sown in a sandy loam soil in round pots type 13 in the open and watered slightly. During the entire experimental period, the substrate only received minimal irrigation. Four weeks after sowing, the plants were treated on a laboratory spray conveyor with spray mixtures of components mesosulfuron-methyl (A1), Genapol® LRO and sodium lactate, A1, Synperonic®A7 and sodium lactate and A1, Genapol® LRO and propylene glycol, the spray mixtures being prepared as in Example A. The water application rate for the spray application of the preparations was 300 l/ha. […]

Avena fatua (AVEFA) [6] = assay: Example B.1 post-emergence spray, controlled-environment cabinet, minimal irrigation, visual scoring; conditions: A1 60 g a.i./ha (Genapol LRO 324, sodium lactate 150 g a.i./ha where combined); 14 days after application; 0%=no damage, 100%=all plants dead; 50% rel. humidity
Procedure: as §1, §2
(§4) Seeds of the harmful plants AVEFA and LOLMU were sown in a sandy loam soil in round pots type 13 in a controlled-environment cabinet and watered slightly. During the entire experiment period, the substrate only received minimal irrigation. A daytime temperature of 18° C. and a nighttime temperature of 16° C. was adhered to, a uniform day length of 16 hours being achieved by additional illumination with sodium vapor lamps (approx. 7000 lux). The relative atmospheric humidity was 50%. […]

[7] = system: Lolium multiflorum (LOLMU); assay: as above; conditions: A1 60 g a.i./ha (Genapol LRO 324, sodium lactate 150 g a.i./ha where combined); 14 days after application; 0%=no damage, 100%=all plants dead; 50% rel. humidity
Procedure: as §1, §2, §4

Row | Structure (SMILES) | Action [%] against harmful plants ECHCG ([1]; herbicide 20 g a.i./ha) [%] | Action [%] against harmful plants ALOMY ([2]; herbicide 20 g a.i./ha) [%] | Action [%] against harmful plants DIGSA ([3]; herbicide 20 g a.i./ha) [%] | Action [%] against harmful plants AVEFA (Avena fatua (AVEFA) [4]; herbicide 20 g a.i./ha) [%] | Action [%] against harmful plants LOLMU ([5]; herbicide 20 g a.i./ha) [%] | other results
1 | COC(=O)c1ccc(I)cc1S(=O)(=O)NC(=O)Nc1nc(C)nc(OC)n1 [A4, 3-(4-methoxy-6-methyl-1,3,5-triazin-2-yl)-1-(2-methoxycarbonyl-5-iodophenyl-sulfonyl)urea] | 70 | 50 | 30 | 60 | 60 | –
2 | CCS(=O)(=O)c1cccnc1S(=O)(=O)NC(=O)Nc1nc(OC)cc(OC)n1 [A2] | – | – | – | – | – | Action [%] against harmful plants ECHCG ([1]; herbicide 5 g a.i./ha): 10%; Action [%] against harmful plants ALOMY ([2]; herbicide 5 g a.i./ha): 70%; Action [%] against harmful plants DIGSA ([3]; herbicide 5 g a.i./ha): 30%; Action [%] against harmful plants AVEFA (Avena fatua (AVEFA) [4]; herbicide 5 g a.i./ha): 0%; Action [%] against harmful plants LOLMU ([5]; herbicide 5 g a.i./ha): 60%
3 | COc1cc(OC)nc(NC(=O)NS(=O)(=O)c2ncccc2C(=O)N(C)C)n1 [A3, 1-(3-N,N-dimethylaminocarbonylpyridin-2-ylsulfonyl)-3-(4,6-dimethoxypyrimidin-2-yl)urea] | 0 | 0 | – | 0 | – | –
4 | COc1cc(OC)nc(NC(=O)NS(=O)(=O)c2cc(NC=O)ccc2C(=O)N(C)C)n1 [A5, N,N-dimethyl-2-[3-(4,6-dimethoxypyrimidin-2-yl)ureidosulfonyl]4-formylamino-benzamide] | 30 | 70 | 0 | 60 | 50 | –
5 | COC(=O)c1ccc(CNS(C)(=O)=O)cc1S(=O)(=O)NC(=O)Nc1nc(OC)cc(OC)n1 [A1, methyl 2-[3-(4,6-dimethoxypyrimidin-2-yl)ureidosulfonyl]4-methanesulfonamido-methylbenzoate] | – | – | – | – | – | Action [%] against harmful plants BROTE (Bromus tectorum (BROTE)): 12.5%; Action [%] against harmful plants AVEFA (Avena fatua (AVEFA) [6]): 10%; Action [%] against harmful plants LOLMU [7]: 10%
